Values of other authors as cited in patent US6716459B2, “Composition for inhibiting increase of blood sugar level or lowering blood sugar level” (priority 1998, dated 2004).

Tested on: Ehrlich Ascites Tumour Cells
Settings: in vitro, Chem. Pharm. Bull. 41(12) 2129-2131 (1993)

C[C@H]1[C@H](C)CC[C@]2(C(=O)O)CC[C@]3(C)C(=CC[C@@H]4[C@@]5(C)C[C@@H](O)[C@H](O)C(C)(C)[C@@H]5CC[C@]43C)[C@H]12 [corosolic acid]
activity on the mobility of grape sugar: activates the mobility of grape sugar
